Columns and labels:
Format in all cases: in vivo
Avena fatua [1] = assay: Method B: pre-emergence herbicidal action; conditions: scored visually after about 3 weeks
Source text: (§1) Method B: Pre-Emergence Herbicidal Action and Crop Plant Compatibility
(§2) Seeds of monocotyledonous and dicotyledonous weed plants and crop plants are placed in plastic or organic planting pots and covered with soil. The compounds of the invention, formulated in the form of wettable powders (WP) or as emulsion concentrates (EC), are then applied onto the surface of the covering soil as aqueous suspension or emulsion with addition of 0.5% additive at a water application rate of 6001/ha (converted). After the treatment, the pots are placed in a greenhouse and kept under good growth conditions for the trial plants. After about 3 weeks, the effect of the preparations is scored visually in comparison with untreated controls as percentages. For example, 100% activity=the plants have died, 0% activity=like control plants.

Stellaria media [2] = assay: Method B: pre-emergence herbicidal action; conditions: scored visually after about 3 weeks
Source text: as §1, §2

Hordeum murinum [3] = assay: Method B: pre-emergence herbicidal action; conditions: scored visually after about 3 weeks
Source text: as §1, §2

Abufilon theophrast [4] = assay: Method B: pre-emergence herbicidal action; conditions: scored visually after about 3 weeks
Source text: as §1, §2

Digitaria sanguinalis = assay: Method B: pre-emergence herbicidal action; conditions: scored visually after about 3 weeks
Source text: as §1, §2

Lolium rigidum [5] = assay: Method B: pre-emergence herbicidal action; conditions: scored visually after about 3 weeks
Source text: as §1, §2

Polygonum convolvulus [6] = assay: Method B: pre-emergence herbicidal action; conditions: scored visually after about 3 weeks
Source text: as §1, §2

Echinochloa crus-galli [7] = assay: Method B: pre-emergence herbicidal action; conditions: scored visually after about 3 weeks
Source text: as §1, §2

Alopecurus myosuroides [8] = assay: Method B: pre-emergence herbicidal action; conditions: scored visually after about 3 weeks
Source text: as §1, §2

harmful plants [9] = assay: Method A: post-emergence herbicidal action, summary in text; conditions: applied post-emergence, table A (320 g/ha)
Method: (§3) Method A: Post-Emergence Herbicidal Action and Crop Plant Compatibility
(§4) Seeds of monocotyledonous and dicotyledonous weeds and crop plants are placed in sandy loam in plastic or organic planting pots, covered with soil and cultivated in a greenhouse under controlled growth conditions. 2 to 3 weeks after sowing, the test plants are treated at the one-leaf stage. The compounds of the invention, formulated in the form of wettable powders (WP) or as emulsion concentrates (EC), are then sprayed onto the green parts of the plants as aqueous suspension or emulsion with addition of 0.5% additive at a water application rate of […] (converted). After the test plants have been kept in the greenhouse under optimum growth conditions for about 3 weeks, the activity of the preparations is rated visually in comparison to untreated controls. For example, 100% activity=the plants have died, 0% activity=like control plants.

Lolium perenne = assay: Method E: herbicidal early post-emergence action; conditions: cotyledon stage, 96-well microtiter plates, scored visually after 9 to 12 days
Method: (§5) Method E: Herbicidal Early Post-Emergence Action Seeds of monocotyledonous or dicotyledonous weed plants are placed in 96-well microtiter plates in quartz sand and grown in a climatized chamber under controlled growth conditions. 5 to 7 days after sowing, the test plants are treated at the cotyledon stage. The compounds of the invention, formulated in the form of emulsion concentrates (EC), are applied with a water application rate of the equivalent of 2200 liters per hectare. After the test plants had been left to stand in the climatized chamber for 9 to 12 days under optimum growth conditions, the effect of the preparations is scored visually in comparison to untreated controls. For example, 100% activity=the plants have died, 0% activity=like control plants.

Stellaria media [10] = assay: Method E: herbicidal early post-emergence action; conditions: cotyledon stage, 96-well microtiter plates, scored visually after 9 to 12 days
Method: as §5

Agrostis tenuis = assay: Method E: herbicidal early post-emergence action; conditions: cotyledon stage, 96-well microtiter plates, scored visually after 9 to 12 days
Method: as §5

Matricaria chamonilla = assay: Method E: herbicidal early post-emergence action; conditions: cotyledon stage, 96-well microtiter plates, scored visually after 9 to 12 days
Method: as §5

Poa annua [11] = assay: Method E: herbicidal early post-emergence action; conditions: cotyledon stage, 96-well microtiter plates, scored visually after 9 to 12 days
Method: as §5

Avena fatua [12] = assay: Method A: post-emergence herbicidal action; conditions: rated visually after about 3 weeks
Method: as §3, §4

Stellaria media [13] = assay: Method A: post-emergence herbicidal action; conditions: rated visually after about 3 weeks
Method: as §3, §4

Hordeum murinum [14] = assay: Method A: post-emergence herbicidal action; conditions: rated visually after about 3 weeks
Method: as §3, §4

Lolium rigidum [15] = assay: Method A: post-emergence herbicidal action; conditions: rated visually after about 3 weeks
Method: as §3, §4

Polygonum convolvulus [16] = assay: Method A: post-emergence herbicidal action; conditions: rated visually after about 3 weeks
Method: as §3, §4

Echinochloa crus-galli [17] = assay: Method A: post-emergence herbicidal action; conditions: rated visually after about 3 weeks
Method: as §3, §4

Alopecurus myosuroides [18] = assay: Method A: post-emergence herbicidal action; conditions: rated visually after about 3 weeks
Method: as §3, §4

harmful plants [19] = assay: Method B: pre-emergence herbicidal action, summary in text; conditions: applied pre-emergence, table B (320 g/ha)
Source text: as §1, §2

harmful plants [20] = assay: Method E: herbicidal early post-emergence action, summary in text; conditions: applied in early post-emergence, table E (1900 g/ha)
Method: as §5

harmful plants [21] = assay: Method D: herbicidal pre-emergence action, summary in text; conditions: applied pre-emergence, table D (1280 g/ha)
Source text: as §2, with “Method D: Herbicidal Pre-Emergence Action Seeds” for “Seeds”, “mono-” for “monocotyledonous”, “weed” for “weed plants and crop”, “plastic pots in sandy loam soil (doubly sown with one species each of mono-” for “plastic”, “dicotyledonous weed plants per pot)” for “organic planting pots”, “600 liters per hectare” for “6001/ha”

Stellaria media [22] = assay: Method D: herbicidal pre-emergence action; conditions: scored visually after about 3 weeks
Source text: as §2, with “Method D: Herbicidal Pre-Emergence Action Seeds” for “Seeds”, “mono-” for “monocotyledonous”, “weed” for “weed plants and crop”, “plastic pots in sandy loam soil (doubly sown with one species each of mono-” for “plastic”, “dicotyledonous weed plants per pot)” for “organic planting pots”, “600 liters per hectare” for “6001/ha”

Setaria viridis = assay: Method D: herbicidal pre-emergence action; conditions: scored visually after about 3 weeks
Source text: as §2, with “Method D: Herbicidal Pre-Emergence Action Seeds” for “Seeds”, “mono-” for “monocotyledonous”, “weed” for “weed plants and crop”, “plastic pots in sandy loam soil (doubly sown with one species each of mono-” for “plastic”, “dicotyledonous weed plants per pot)” for “organic planting pots”, “600 liters per hectare” for “6001/ha”

Abufilon theophrast [23] = assay: Method D: herbicidal pre-emergence action; conditions: scored visually after about 3 weeks
Source text: as §2, with “Method D: Herbicidal Pre-Emergence Action Seeds” for “Seeds”, “mono-” for “monocotyledonous”, “weed” for “weed plants and crop”, “plastic pots in sandy loam soil (doubly sown with one species each of mono-” for “plastic”, “dicotyledonous weed plants per pot)” for “organic planting pots”, “600 liters per hectare” for “6001/ha”

Matricaria inodora = assay: Method D: herbicidal pre-emergence action; conditions: scored visually after about 3 weeks
Source text: as §2, with “Method D: Herbicidal Pre-Emergence Action Seeds” for “Seeds”, “mono-” for “monocotyledonous”, “weed” for “weed plants and crop”, “plastic pots in sandy loam soil (doubly sown with one species each of mono-” for “plastic”, “dicotyledonous weed plants per pot)” for “organic planting pots”, “600 liters per hectare” for “6001/ha”

Lolium rigidum [24] = assay: Method D: herbicidal pre-emergence action; conditions: scored visually after about 3 weeks
Source text: as §2, with “Method D: Herbicidal Pre-Emergence Action Seeds” for “Seeds”, “mono-” for “monocotyledonous”, “weed” for “weed plants and crop”, “plastic pots in sandy loam soil (doubly sown with one species each of mono-” for “plastic”, “dicotyledonous weed plants per pot)” for “organic planting pots”, “600 liters per hectare” for “6001/ha”

Echinochloa crus-galli [25] = assay: Method D: herbicidal pre-emergence action; conditions: scored visually after about 3 weeks
Source text: as §2, with “Method D: Herbicidal Pre-Emergence Action Seeds” for “Seeds”, “mono-” for “monocotyledonous”, “weed” for “weed plants and crop”, “plastic pots in sandy loam soil (doubly sown with one species each of mono-” for “plastic”, “dicotyledonous weed plants per pot)” for “organic planting pots”, “600 liters per hectare” for “6001/ha”

Poa annua [26] = assay: Method D: herbicidal pre-emergence action; conditions: scored visually after about 3 weeks
Source text: as §2, with “Method D: Herbicidal Pre-Emergence Action Seeds” for “Seeds”, “mono-” for “monocotyledonous”, “weed” for “weed plants and crop”, “plastic pots in sandy loam soil (doubly sown with one species each of mono-” for “plastic”, “dicotyledonous weed plants per pot)” for “organic planting pots”, “600 liters per hectare” for “6001/ha”

Stellaria media [27] = assay: Method C: herbicidal post-emergence action; conditions: rated visually after about 3 weeks
Method: (§6) Method C: Herbicidal Post-Emergence Action Seeds of mono- and dicotyledonous weed plants are placed in plastic pots in sandy loam soil (doubly sown with one species each of mono- or dicotyledonous weed plants per pot), covered with soil and cultivated in a greenhouse under controlled growth conditions. 2 to 3 weeks after sowing, the test plants are treated at the one-leaf stage. The compounds of the invention, formulated in the form of wettable powders (WP) or as emulsion concentrates (EC), are applied to the green parts of the plants as aqueous suspension or emulsion with addition of 0.5% additive at a water application rate equivalent to 600 liters per hectare. After the test plants have been kept in the greenhouse under optimum growth conditions for about 3 weeks, the activity of the preparations is rated visually in comparison to untreated controls. For example, 100% activity=the plants have died, 0% activity=like control plants.

Lolium rigidum [28] = assay: Method C: herbicidal post-emergence action; conditions: rated visually after about 3 weeks
Method: as §6

Echinochloa crus-galli [29] = assay: Method C: herbicidal post-emergence action; conditions: rated visually after about 3 weeks
Method: as §6

Poa annua [30] = assay: Method C: herbicidal post-emergence action; conditions: rated visually after about 3 weeks
Method: as §6

harmful plants [31] = assay: Method C: herbicidal post-emergence action, summary in text; conditions: applied post-emergence, table C (1280 g/ha)
Method: as §6

Row | SMILES | Pre-emergence action at 320 g/ha AVEFA (Avena fatua [1]) | Pre-emergence action at 320 g/ha STEME (Stellaria media [2]) | Pre-emergence action at 320 g/ha HORMU (Hordeum murinum [3]) | Pre-emergence action at 320 g/ha ABUTH (Abufilon theophrast [4]) | Pre-emergence action at 320 g/ha DIGSA (Digitaria sanguinalis) | Pre-emergence action at 320 g/ha LOLRI (Lolium rigidum [5]) | Pre-emergence action at 320 g/ha POLCO (Polygonum convolvulus [6]) | Pre-emergence action at 320 g/ha ECHCG (Echinochloa crus-galli [7]) | Pre-emergence action at 320 g/ha ALOMY (Alopecurus myosuroides [8]) | herbicidal efficacy against harmful plants (harmful plants [9]) | Early post-emergence action at 1900 g/ha LOLPE (Lolium perenne) | Early post-emergence action at 1900 g/ha STEME (Stellaria media [10]) | Early post-emergence action at 1900 g/ha AGSTE (Agrostis tenuis) | Early post-emergence action at 1900 g/ha MATCH (Matricaria chamonilla) | Early post-emergence action at 1900 g/ha POAAN (Poa annua [11]) | Post-emergence action at 320 g/ha AVEFA (Avena fatua [12]) | Post-emergence action at 320 g/ha STEME (Stellaria media [13]) | Post-emergence action at 320 g/ha HORMU (Hordeum murinum [14]) | Post-emergence action at 320 g/ha LOLRI (Lolium rigidum [15]) | Post-emergence action at 320 g/ha POLCO (Polygonum convolvulus [16]) | further results
1 | CN(C)C(=O)C(=O)Cc1nc(C2CC2)ncc1-c1ccccc1Cl [Example I-139, 3-[5-(2-chlorophenyl)-2-cyclopropylpyrimidin-4-yl]-N,N-dimethyl-2-oxopropanamide] | 80% | 100% | 90% | 80% | 100% | 100% | 90% | 100% | 100% | very good herbicidal efficacy | 80% | 100% | 100% | 100% | 100% | 90% | 80% | 90% | 100% | 90% | Post-emergence action at 320 g/ha ECHCG (Echinochloa crus-galli [17]): 90%; Post-emergence action at 320 g/ha ALOMY (Alopecurus myosuroides [18]): 100%; herbicidal efficacy against harmful plants (harmful plants [19]): very good herbicidal efficacy
2 | O=C(Cc1nc(C2CC2)ncc1-c1c(F)cccc1Cl)C(=O)N1CCCCC1 [Example I-146, 3-[5-(2-chloro-6-fluorophenyl)-2-cyclopropylpyrimidin-4-yl]-1-(piperidin-1-yl)propane-1,2-dione] |  |  |  |  |  |  |  |  |  |  | 80% | 80% | 80% | 80% | 80% |  |  |  |  |  | 
3 | CCOC(=O)C(=O)Cc1nc(C2CC2)ncc1-c1ccccc1Cl [II-099, ethyl 3-[5-(2-chlorophenyl)-2-cyclopropylpyrimidin-4-yl]-2-oxopropanoate] | 90% | 100% | 90% | 80% | 90% | 100% | 90% | 100% | 100% | very good herbicidal efficacy |  |  | 100% | 100% | 100% | 90% | 100% | 80% | 100% | 90% | herbicidal efficacy against harmful plants (harmful plants [20]): very good herbicidal efficacy; Post-emergence action at 320 g/ha ECHCG (Echinochloa crus-galli [17]): 90%; Post-emergence action at 320 g/ha ALOMY (Alopecurus myosuroides [18]): 90%; herbicidal efficacy against harmful plants (harmful plants [19]): very good herbicidal efficacy
4 | CN(NC(=O)C(=O)Cc1nc(C2CC2)ncc1-c1ccccc1Cl)C(=O)OC(C)(C)C [IV-137, tert-butyl 2-{3-[5-(2-chlorophenyl)-2-cyclopropylpyrimidin-4-yl]-2-oxopropanoyl}-1-methylhydrazinecarboxylate] |  |  |  |  |  |  |  |  |  |  | 80% | 100% | 100% | 80% | 80% |  |  |  |  |  | herbicidal efficacy against harmful plants (harmful plants [20]): very good herbicidal efficacy; herbicidal efficacy against harmful plants (harmful plants [21]): very good herbicidal efficacy; Pre-emergence action at 1280 g/ha STEME (Stellaria media [22]): 100%; Pre-emergence action at 1280 g/ha SETVI (Setaria viridis): 90%; Pre-emergence action at 1280 g/ha ABUTH (Abufilon theophrast [23]): 90%; Pre-emergence action at 1280 g/ha MATIN (Matricaria inodora): 90%; Pre-emergence action at 1280 g/ha LOLRI (Lolium rigidum [24]): 90%; Pre-emergence action at 1280 g/ha ECHCG (Echinochloa crus-galli [25]): 90%; Pre-emergence action at 1280 g/ha POAAN (Poa annua [26]): 100%; Post-emergence action at 1280 g/ha STEME (Stellaria media [27]): 100%; Post-emergence action at 1280 g/ha LOLRI (Lolium rigidum [28]): 100%; Post-emergence action at 1280 g/ha ECHCG (Echinochloa crus-galli [29]): 100%; Post-emergence action at 1280 g/ha POAAN (Poa annua [30]): 100%; herbicidal efficacy against harmful plants (harmful plants [31]): very good herbicidal efficacy

Reference: patent US11390589B2, “Herbicidally active substituted phenylpyrimidines” (Bayer Aktiengesellschaft, priority 2018, dated 2022)
